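How tested: cells in 96-well plates exposed to compound for 48 hours at five concentrations. GI50 = concentration required for 50% inhibition of growth. The concentration for full growth arrest is given as TGI.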
Columns and labels:
Test in all cases: NCI-60 cell line screen, 48 h
NCI-H460 lung = system: NCI-H460 lung
K-562 leukemia = system: K-562 leukemia
RXF 393 renal = system: RXF 393 renal
KM12 colon = system: KM12 colon
TK-10 renal = system: TK-10 renal
IGROV1 ovarian = system: IGROV1 ovarian
SNB-75 CNS = system: SNB-75 CNS
SK-OV-3 ovarian = system: SK-OV-3 ovarian
OVCAR-8 ovarian = system: OVCAR-8 ovarian
COLO 205 colon = system: COLO 205 colon

Compound	TGI (NCI-H460 lung)	TGI (K-562 leukemia)	TGI (RXF 393 renal)	TGI (KM12 colon)	TGI (TK-10 renal)	TGI (IGROV1 ovarian)	TGI (SNB-75 CNS)	TGI (SK-OV-3 ovarian)	TGI (OVCAR-8 ovarian)	TGI (COLO 205 colon)	GI50 (NCI-H460 lung)	GI50 (K-562 leukemia)	GI50 (RXF 393 renal)	GI50 (KM12 colon)	GI50 (TK-10 renal)	GI50 (IGROV1 ovarian)	GI50 (SNB-75 CNS)	GI50 (SK-OV-3 ovarian)	GI50 (OVCAR-8 ovarian)	GI50 (COLO 205 colon)
Clc1ccc(Cc2nc3ccccc3s2)c(Cl)c1	41.4 µM	36.2 µM	36 µM	34.9 µM	38.4 µM	30.6 µM	34.5 µM	43.3 µM	38.4 µM	31.5 µM	–	–	–	–	–	–	–	–	–	–
CC(C)C1(O)C(c2ccccc2)=C(c2ccccc2)C(c2ccccc2)=C1c1ccccc1	46.8 µM	> 100 µM	13.3 µM	17.9 µM	56.3 µM	> 100 µM	58.5 µM	> 100 µM	> 100 µM	21.7 µM	–	–	–	–	–	–	–	–	–	–
O=[N+]([O-])c1ccc(S(=O)Cc2ccccc2)c([N+](=O)[O-])c1 (stereo not given)	33.2 µM	6.65 µM	2.78 µM	29.4 µM	3.16 µM	33.9 µM	25.2 µM	30 µM	10.5 µM	3.05 µM	16.4 µM	2.56 µM	1.45 µM	15.6 µM	1.78 µM	14.1 µM	12 µM	16.4 µM	3.02 µM	1.68 µM
Oc1ccc(C(c2ccc(O)cc2)c2ccc(Cl)cn2)cc1	> 100 µM	> 100 µM	1.65 µM	> 100 µM	0.525 µM	42 µM	0.451 µM	> 100 µM	1.16 µM	4.97 µM	31.6 µM	13.5 µM	0.0593 µM	0.463 µM	0.0951 µM	0.378 µM	0.17 µM	18.6 µM	0.0346 µM	0.0416 µM
COc1ccc(C2SCC(=O)N2NC(=O)C(O)c2ccccc2)cc1OC (stereo not given)	> 100 µM	> 100 µM	> 100 µM	> 100 µM	> 100 µM	> 100 µM	> 100 µM	> 100 µM	> 100 µM	> 100 µM	> 100 µM	> 100 µM	> 100 µM	> 100 µM	> 100 µM	> 100 µM	> 100 µM	> 100 µM	> 100 µM	> 100 µM
COC(=O)C1C(O)CC(c2ccccn2)N(Cc2ccccc2)C1c1ccccn1 (stereo not given)	> 100 µM	> 100 µM	> 100 µM	> 100 µM	> 100 µM	> 100 µM	> 100 µM	> 100 µM	> 100 µM	> 100 µM	–	–	–	–	–	–	–	–	–	–
Oc1cc(O)c(Oc2cccc(O)c2O)c(O)c1	> 100 µM	> 100 µM	> 100 µM	> 100 µM	> 100 µM	> 100 µM	> 100 µM	> 100 µM	> 100 µM	> 100 µM	–	–	–	–	–	–	–	–	–	–
O=C(Nc1cccc([N+](=O)[O-])c1)C(=O)C(C(=O)c1ccccc1-c1ccccc1)C1OC(=O)c2ccccc21 (stereo not given)	88 µM	> 100 µM	28.5 µM	44.2 µM	61.5 µM	98.8 µM	64.8 µM	> 100 µM	71 µM	38.1 µM	–	–	–	–	–	–	–	–	–	–
COC1=CC(=O)C2C(C1=O)[C@@H]1c3ccccc3C[C@H]21 (stereo not given in full)	> 100 µM	> 100 µM	> 100 µM	> 100 µM	> 100 µM	> 100 µM	> 100 µM	> 100 µM	> 100 µM	> 100 µM	–	–	–	–	–	–	–	–	–	–
CC1CC#CCOC(=O)CCCC1=O (stereo not given)	> 100 µM	> 100 µM	> 100 µM	> 100 µM	> 100 µM	> 100 µM	> 100 µM	> 100 µM	> 100 µM	> 100 µM	–	–	–	–	–	–	–	–	–	–
O=C(c1ccccc1)C1CCCCN1C(=O)c1ccccc1 (stereo not given)	> 100 µM	> 100 µM	> 100 µM	> 100 µM	> 100 µM	> 100 µM	> 100 µM	> 100 µM	> 100 µM	> 100 µM	–	–	–	–	–	–	–	–	–	–
COc1ccc(-c2oc3c(OC)c(OC)c(OC)c(O)c3c(=O)c2OC)cc1OC	> 83.7 µM	> 54.3 µM	87.4 µM	> 100 µM	> 100 µM	23.2 µM	13.2 µM	63.8 µM	> 100 µM	> 73.1 µM	–	–	–	–	–	–	–	–	–	–
C=CCN(/C=C1/C(=O)O[C@H](COC)[C@@]2(C)C1=C(O)C(=O)C1=C2[C@H](OC(C)=O)C[C@]2(C)C(=O)CC[C@@H]12)CC=C	> 10 µM	> 10 µM	1.56 µM	> 10 µM	> 7.79 µM	6.81 µM	0.816 µM	> 8.47 µM	> 10 µM	> 10 µM	0.585 µM	> 8.1 µM	0.112 µM	2.52 µM	0.193 µM	0.135 µM	0.0364 µM	0.331 µM	2.87 µM	2.17 µM
C=C1SC(=Nc2c(C)cc(C)cc2C)N(C(=O)c2sc3ccccc3c2Cl)C12CCCCC2	> 100 µM	> 100 µM	> 100 µM	> 100 µM	> 100 µM	> 100 µM	> 100 µM	> 100 µM	> 100 µM	> 100 µM	> 100 µM	54.5 µM	> 100 µM	54.6 µM	> 100 µM	> 100 µM	> 100 µM	> 100 µM	> 100 µM	> 100 µM
CC1(C)CC[C@H](Nc2ncc(C(F)(F)F)c(-c3c[nH]c4c(P(C)(C)=O)c(C#N)ccc34)n2)CN1	11.5 µM	> 45.9 µM	4 µM	13.2 µM	> 53.9 µM	14.5 µM	10.6 µM	5.46 µM	> 50.2 µM	0.773 µM	< 0.01 µM	0.0219 µM	0.777 µM	0.19 µM	0.711 µM	0.0231 µM	0.774 µM	1.07 µM	0.469 µM	< 0.01 µM
CC1CCP(=O)(c2ccccc2)c2ccccc21 (stereo not given)	80.3 µM	62.9 µM	> 100 µM	> 100 µM	> 100 µM	> 100 µM	> 100 µM	> 100 µM	> 100 µM	> 100 µM	–	–	–	–	–	–	–	–	–	–

Reference: PubChem BioAssay (NCI)
